Common to all, as to assay type: cell-based
Series [1] concerns Gram-positive and Gram-negative bacteria (all bacterial strains tested). Briefly: MIC determination, summary over all tested bacterial strains. Conditions: summary over the six strains tested; MHB, 37 °C, 18 h, peptide 0.625 to 40 μg/mL. As for the experimental part: (§1) The antimicrobial activities of the peptides were tested against S. aureus ATCC29213, E. faecalis ATCC29212, E. coli ATCC25922, K. pneumoniae ATCC700603, P. aeruginosa ATCC27853 and A. baumannii ATCC19606. All these strains were purchased from the China Center of Type Culture Collection (CCTCC).
(§2) The antimicrobial activities of the peptides were determined as previously described. Briefly, the bacteria were incubated at 37 °C and 150 rpm until the log phase of growth. Next, the bacteria were diluted with Mueller-Hinton broth (MHB, Oxoid, UK) and prepared in a clear round-bottom polypropylene 96-well microtiter plate to achieve a final concentration of 5 × 10^5 colony-forming unit (CFU)/mL. Twofold serial dilutions of the peptides were added into each well with the concentrations ranging from 0.625 to 40 μg/mL. The mixed peptides and cells were cultured at 37 °C and 150 rpm for 18 h, and the optical density (OD) was measured at 630 nm. The minimum inhibitory concentration was defined as the lowest peptide concentration with no detectable bacterial growth.

In series [2] the test system is human red blood cells. As to the kind of experiment: Hemolytic activity determination. Conditions: 2% (v/v) hRBCs, peptide 12.5-200 μg/mL, 37 °C, 1 h, absorbance 540 nm; 1% Triton X-100 = 100%; three independent experiments. The method, then:
The hemolytic activities of the peptides were determined against human red blood cells (hRBCs). Briefly, fresh hRBCs anticoagulated with sodium citrate were rinsed with 0.9% sodium chloride by centrifugation (1000× g, 5 min). Then, the cells were diluted to a final concentration of 2% (v/v) and prepared in a clear 96-well polypropylene microtiter plate. Next, the samples were mixed with a series of concentrations of the peptide (12.5, 25, 50, 100 and 200 μg/mL) and incubated at 37 °C for 1 h. After that, the samples were centrifuged (2000× g, 10 min), and the absorbances of the supernatants were measured at 540 nm to evaluate the release of hemoglobin. HRBCs treated with 1% Triton X-100 or 0.9% sodium chloride were taken as 100% and 0% hemolysis, respectively.

Series [3] relates to mouse fibroblast cell line L929. As to the kind of experiment: Cytotoxicity determination (CCK-8). Conditions: L929 cells, peptide 0-100 μg/mL, 24 h, CCK-8, OD 450 nm; three independent experiments. The method, then: To determine the cytotoxicity of the peptide, the mouse fibroblast cell L929 (8000 cells per well) were seeded in a 96-well plate and incubated for 24 h in Dulbecco’s modified Eagle’s medium (DMEM, Gibco, USA) supplemented with 10% fetal bovine serum (FBS, Gibco, USA), 2 mM/L L-glutamine, 100 U/mL penicillin and […] streptomycin (1% P/S, Invitrogen, USA) at 37 °C in a 5% CO2 atmosphere. Then, a series of concentrations of the peptide (0, 5, 10, 20, 40, 60, 80 and 100 μg/mL) were added into each well and incubation was performed for 24 h. After that, the cytotoxicity of the peptide was measured with the CCK8 cell counting kit (Yeasen, Shanghai, China) by measuring the optical density at 450 nm.

In series [4] the test system is Klebsiella pneumoniae ATCC700603. As to the kind of experiment: MIC determination (broth microdilution). Conditions: MHB, 5 × 10^5 CFU/mL, peptide 0.625 to 40 μg/mL, 37 °C, 18 h, OD 630 nm. The method, then:
as §1, §2

For series [5], the system named is Escherichia coli ATCC25922. As to the kind of experiment: MIC determination (broth microdilution). Conditions: MHB, 5 × 10^5 CFU/mL, peptide 0.625 to 40 μg/mL, 37 °C, 18 h, OD 630 nm. The method, then: as §1, §2
Series [6] has as its system Staphylococcus aureus ATCC29213. Briefly: MIC determination (broth microdilution). Conditions: MHB, 5 × 10^5 CFU/mL, peptide 0.625 to 40 μg/mL, 37 °C, 18 h, OD 630 nm. The method, then: as §1, §2
(In general: Broth dilution looks for growth in wells or tubes with falling amounts of substance.)

In series [7] the test system is Enterococcus faecalis ATCC29212. Briefly: MIC determination (broth microdilution). Conditions: MHB, 5 × 10^5 CFU/mL, peptide 0.625 to 40 μg/mL, 37 °C, 18 h, OD 630 nm. The method, then: as §1, §2
The subject of series [8] is Pseudomonas aeruginosa ATCC27853. Briefly: MIC determination (broth microdilution). Conditions: MHB, 5 × 10^5 CFU/mL, peptide 0.625 to 40 μg/mL, 37 °C, 18 h, OD 630 nm. As for the experimental part:
as §1, §2

Series [9] deals with Acinetobacter baumannii ATCC19606. Briefly: MIC determination (broth microdilution). Conditions: MHB, 5 × 10^5 CFU/mL, peptide 0.625 to 40 μg/mL, 37 °C, 18 h, OD 630 nm. As for the experimental part:
as §1, §2

Structures are written as SMILES. Values after ≈ are worked out from the molar mass of the structure shown. Where a SMILES comes first, the peptide text is derived from it.

`CC[C@H](C)[C@H](NC(=O)[C@H](CCCCN)NC(=O)CNC(=O)[C@H](C)NC(=O)[C@@H](NC(=O)[C@H](CCCCN)NC(=O)[C@H](CCCCN)NC(=O)[C@@H](NC(=O)[C@H](Cc1c[nH]c2ccccc12)NC(=O)[C@H](CC(=O)O)NC(=O)[C@H](Cc1c[nH]c2ccccc12)NC(=O)[C@@H](NC(=O)CN)C(C)C)[C@@H](C)CC)[C@@H](C)O)C(=O)N[C@@H](Cc1c[nH]c2ccccc12)C(N)=O` [Smp43(1-14)] (H-GVWDWIKKTAGKIW-NH2): in series [1], the “MICs against the tested Gram-positive and Gram-negative bacterial species” value is 5 to 10 µg/mL. Moreover, the “HC10: the concentration of the peptide that causes 10% hemolysis of human red blood cells” value in series [2] amounted to 75 µg/mL. In series [3], the “IC10: the concentration of the peptide that causes 10% inhibition of cell growth” value worked out at 92 µg/mL. The minimal inhibitory concentration (MIC) (in general, the lowest concentration that inhibits growth of the organism) in series [4] is 10 µg/mL (≈ 5.93 µM); in series [5], 10 µg/mL (≈ 5.93 µM); in series [6] it was 5 µg/mL (≈ 2.96 µM); in [7], 10 µg/mL (≈ 5.93 µM); in series [8] it was 10 µg/mL (≈ 5.93 µM); in series [9], 5 µg/mL (≈ 2.96 µM).

Source of the values: PMC8150835, “An Smp43-Derived Short-Chain α-Helical Peptide Displays a Unique Sequence and Possesses Antimicrobial Activity against Both Gram-Positive and Gram-Negative Bacteria” (Toxins, 2021).
